From paper PMC6888128, “Biosynthesis of Phenylamide Phytoalexins in Pathogen-Infected Barley” (International Journal of Molecular Sciences, 2019)
Where two headings read alike, the source gives them in different places.

Assays:
HvTHT7 = tested on: T1, HvTHT7; experiment: LC-MS/MS (MRM) of amide product; assay type: biochemical, Hordeum vulgare; settings: 100 mM Tris-HCl pH 8.0, 35 °C, read-out: HvTHT7 / K m
T1 construct: His-GST-tagged (pCold GST), E. coli BL21, TALON-purified; HvTHT7 plasmid made by site-directed mutagenesis of HvTHT8; differs from HvTHT8 only at residue 166 (His/Arg)
Text: LC-MS/MS (MRM) of amide product on HvTHT7

HvTHT8 = tested on: T2, HvTHT8; experiment: LC-MS/MS (MRM) of amide product; assay type: biochemical, Hordeum vulgare; settings: 100 mM Tris-HCl pH 8.0, 35 °C, read-out: HvTHT8 / K m
T2 construct: His-GST-tagged (pCold GST), E. coli BL21, TALON-purified; differs from HvTHT7 only at residue 166 (His/Arg)
Text: LC-MS/MS (MRM) of amide product on HvTHT8

[1] = acyl acceptor, 200 µM cinnamoyl-CoA

SMILES	Km (HvTHT7; [1])	Km (HvTHT8; [1])	Km (HvTHT7; acyl donor, 1 mM tryptamine)	Km (HvTHT8; acyl donor, 1 mM tryptamine)
NCC(=O)c1c[nH]c2ccccc12 [8-Oxotryptamine]	53.1 µM	54.9 µM	–	–
CC(C)(COP(=O)(O)OP(=O)(O)OC[C@H]1O[C@@H](n2cnc3c(N)ncnc32)[C@H](O)[C@@H]1OP(=O)(O)O)[C@@H](O)C(=O)NCCC(=O)NCCSC(=O)/C=C/c1ccccc1 [Cinnamoyl-CoA]	–	–	64.2 µM	62.1 µM
CC(C)(COP(=O)(O)OP(=O)(O)OC[C@H]1O[C@@H](n2cnc3c(N)ncnc32)[C@H](O)[C@@H]1OP(=O)(O)O)[C@@H](O)C(=O)NCCC(=O)NCCSC(=O)/C=C/c1ccc(O)cc1 [Coumaroyl-CoA]	–	–	39.2 µM	35.5 µM
COc1cc(/C=C/C(=O)SCCNC(=O)CCNC(=O)[C@H](O)C(C)(C)COP(=O)(O)OP(=O)(O)OC[C@H]2O[C@@H](n3cnc4c(N)ncnc43)[C@H](O)[C@@H]2OP(=O)(O)O)ccc1O [Feruloyl-CoA]	–	–	32.6 µM	36.7 µM
NCc1c[nH]c2ccccc12 [IMA, (1H-indol-3-yl)methylamine]	54.2 µM	33.9 µM	–	–
NCCc1c[nH]c2ccc(O)cc12 [Serotonin]	385 µM	347 µM	–	–
NCCc1c[nH]c2ccccc12 [Tryptamine]	59.2 µM	60.6 µM	–	–
